Patent US5591648A, “Antibodies for mevalonic acid and methods for immunological determination of mevalonic acid by using them” (Ono Pharmaceutical Co., Ltd., priority 1993, dated 1997)

Tests used:
Assay type in all cases: binding
[1] = target: mouse polyclonal antibody KLH-(53)M for mevalonic acid; assay: Enzyme immunoassay of mevalonic acid, solid phase antigen method, mouse polyclonal antibody KLH-(53)M; details: KLH-(53)M diluted 5 × 10^2; coated BSA-(39) 1 μg/ml; second antibody and blocking (B)
Description: (§1) An emulsion of PBS (100 μl) containing each of various antigens for immunization prepared in Example 2 (120 μg as BSA when a BSA-conjugate is used or 120 μg as KLH when a KLH-conjugate is used), and FCA (100 μl) was intraperitoneally administered to a male BALC/c mouse aged eight weeks. After about 2 weeks, the mouse was immunized five times every 2 weeks, by an emulsion of a PBS solution (100 μl) containing of the antigen for immunization and FICA (100 μl), prepared by the same procedure as hereinbefore described. After the second and fifth immunization with the antigen for immunization and FICA, the titer of antibody in blood was measured by the method shown below.
(§2) Anti-mouse IgG antibody labeled with the horse-radish peroxidase (prepared by Vector Co.), which was diluted with 50 mM PB containing 0.1% BSA 10000 times (a solution of the second antibody (B)), and which was diluted with 50 mM PB containing 0.1% OVA 10000 times (a solution of the second antibody (O)). […]
(§3) After the removal of an aqueous layer, a standard solution (100 μl) was added thereto. […] After a stopping solution (50 μl) added thereto, and the absorbance was measured at 450 nm.
(§4) On all mouse polyclonal antibody, standard calibration curves were made by platting B/B0 calculated from the measured absorbance.

[2] = test system: rabbit polyclonal antibody KLH-(12)R for mevalonic acid; assay: Cross-reaction of rabbit polyclonal antibody with analogues of mevalonic acid (radioimmunoassay, competition with R-[2-14C] mevalonic acid); details: for IC50: competition with 400 Bq R-[2-14C] mevalonic acid, overnight at 4° C., polyethylene glycol precipitation
Description: After about 4 weeks, the rabbit was sensitized four times for each 2 weeks, by an emulsion of a PBS solution (500 μl) containing of the antigen for immunization prepared by the same procedure as hereinbefore described, and FICA (500 μl).
Blood was collected from the rabbit and to the serum prepared (50 μl) were added successively water (450 μl), 0.5% γ-globulin (80 μl) and a saturated aqueous solution of ammonium sulfate (580 μl), and then the mixture was centrifuged. The precipitation was dissolved into 50 mM PB (200 μl), and 50 mM PB (100 μl) containing R-[2-^14 C] mevalonic acid (400 Bq) was added thereto and the mixture was reacted overnight at 4° C. To the mixture was added successively 0.1M PB (200 μl) containing 0.5% bovine γ-globulin and 30% polyethylene glycol 6000 (register trademark, Wako Pure Chem Ind. Ltd. 600 μl), and then the mixture was centrifuged. Radioactivity of the precipitation was measured. […] This blood serum was called as polyclonal antibody, KLH-(12)R.
To 50 mM PB containing 400 Bq of R-[2-^14 C] mevalonic acid (100 μl) was added successively a solution of antibody (the mixture of the polyclonal antibody KLH-(12)R of the present invention, water, (0.5% γ-globulin and a saturated aqueous solution of ammonium sulfate in the ratio of 0.5:4.5:0.8:5.8 was centrifugalized, and the obtained precipitation was dissolved into a solution of 50 mM PB of four times as much as amount of the used polyclonal antibody, 100 μl) and a standard solution of mevalonic acid analogous compound as indicated following table (a solution of 50 mM PB, 100 μl) in the polystyrene tube, and then the mixture was allowed to stand overnight at 4° C. To the reaction mixture was added a solution of 0.5% γ-globulin (200 μl), and further added 30% polyethylene glycol 6000 (600 μl), and then the mixture was centrifuged. The precipitation was dissolved into 0.1N aqueous solution of sodium hydroxide, and added the liquid of scintillator (1 ml), and measured radioactivity.

[3] = target: mouse polyclonal antibody BSA-(19)M for mevalonic acid; assay: Enzyme immunoassay of mevalonic acid, solid phase antigen method, mouse polyclonal antibody BSA-(19)M; details: BSA-(19)M diluted 2 × 10^3; coated KLH-(31) 0.01 μg/ml; second antibody and blocking (O)
Description: as §1, §2, §3, §4

[4] = target: mouse polyclonal antibody KLH-(12)M for mevalonic acid; assay: Enzyme immunoassay of mevalonic acid, solid phase antigen method, mouse polyclonal antibody KLH-(12)M; details: KLH-(12)M diluted 10^4; coated BSA-(31) 0.01 μg/ml; second antibody and blocking (B)
Description: as §1, §2, §3, §4

[5] = target: mouse polyclonal antibody KLH-(18)M for mevalonic acid; assay: Enzyme immunoassay of mevalonic acid, solid phase antigen method, mouse polyclonal antibody KLH-(18)M; details: KLH-(18)M diluted 2 × 10^3; coated BSA-(31) 0.01 μg/ml; second antibody and blocking (B)
Description: as §1, §2, §3, §4

[6] = target: mouse polyclonal antibody KLH-(39)M for mevalonic acid; assay: Enzyme immunoassay of mevalonic acid, solid phase antigen method, mouse polyclonal antibody KLH-(39)M; details: KLH-(39)M diluted 3 × 10^4; coated BSA-(12) 0.01 μg/ml; second antibody and blocking (B)
Description: as §1, §2, §3, §4

[7] = target: mouse polyclonal antibody KLH-(31)M for mevalonic acid; assay: Enzyme immunoassay of mevalonic acid, solid phase antigen method, mouse polyclonal antibody KLH-(31)M; details: KLH-(31)M diluted 10^5; coated BSA-(12) 0.01 μg/ml; second antibody and blocking (B)
Description: as §1, §2, §3, §4

[8] = target: mouse monoclonal antibody MHM-9H (IgG2b, k; hybridoma FERM BP-4524) for mevalonic acid; assay: Cross-reaction of mouse monoclonal antibody with analogues of mevalonic acid (enzyme immunoassay, solid phase first antibody); details: for IC50: antibody MHM-9H coated 7 μg/ml, peroxidase-labeled antigen (18), overnight at 4° C., absorbance 450 nm; for cross-reactivity: antibody MHM-9H, relative to mevalonic acid = 100
Description: A solution of antibody (prepared in example 10 as hereinafter defined) was placed with 100 μl portions in a polystyrene 96 wells micro plate (prepared by NUNC Co.). The micro plate was allowed to stand for 1.5 hours at room temperature to be fixed. After the removal of an aqueous layer, 50 mM PB (400 μl) containing 0.5% BSA was added to block the inside of a wall of wells for 1 hour at room temperature.
After the removal of an aqueous layer, 50 mM PB (100 μl) containing mevalonic acid analogues of various concentrations was added. A solution of labeled antigen (prepared in example 10 as hereinafter defined) was added thereto with 100 μl portions and then the mixture was allowed to stand overnight at 4° C. After the removal of an aqueous layer, the dishes were washed twice with 50 mM PB (300 μl) containing 0.05% Tween 20. The substrate solution (prepared in example 9 as hereinafter, 250 μl) was added thereto and then the mixture was reacted for 15 minutes at room temperature. After the reaction was stopped by the addition of 1N sulfuric acid (50 μl), and the absorbance was measured at 450 nm.
A conjugate (18) of mevalonic acid derivative and a specer (prepared) in example 1(b). 175 nmol) was added to PBS (175 μl) containing a horse-radish peroxidase (prepared by Toyobo, 350 μg) and then the mixture was reacted for 2 hours at room temperature and then overnight at 4° C. The reaction mixture was dialyzed by a mixture of 1,4-dioxane and PBS (1:1) and then by PBS. An obtained enzyme-labeled antigen was diluted with 50 mM PB containing 0.1% BSA to become 1.25 ng/100 μl (as peroxidase protein).
Monoclonal antibody of the present invention, MHM-9H (prepared in example 5), was prepared by 50 mM PB to become 7 μg/ml.

[9] = target: mouse polyclonal antibody KLH-(45)M for mevalonic acid; assay: Enzyme immunoassay of mevalonic acid, solid phase antigen method, mouse polyclonal antibody KLH-(45)M; details: KLH-(45)M diluted 2 × 10^3; coated BSA-(12) 0.1 μg/ml; second antibody and blocking (B)
Description: as §1, §2, §3, §4

[10] = relative to mevalonic acid = 100

Row | Structure (SMILES) | IC50 [1] | IC50 [2] | cross-reactivity [2, 10] | IC50 [3] | IC50 [4] | IC50 [5] | IC50 [6] | IC50 [7] | IC50 [8] | cross-reactivity [8] | IC50 [9] | cross-reactivity ([2]; relative to mevalonic acid = 100, listed as glutaric acid)
1 | C[C@@](O)(CCO)CC(=O)O [Mevalonic acid] | 6.0 μg/test | 0.065 μg/test | 100% | 3.6 μg/test | 0.5 μg/test | 0.3 μg/test | 0.1 μg/test | 0.7 μg/test | 0.0025 μg/test | 100% | 4.0 μg/test | –
2 | CC(CC(=O)O)CC(=O)O [3-Methylglutaric acid] | – | 1000 μg/test | 0.0065% | – | – | – | – | – | > 250 μg/test | < 0.001% | – | –
3 | CC(O)(CC(=O)O)CC(=O)O [3-Hydroxy-3-methylglutaric acid] | – | 500 μg/test | 0.013% | – | – | – | – | – | > 250 μg/test | < 0.001% | – | –
4 | O=C(O)CCCC(=O)O [Glutaric acid] | – | > 6500 μg/test | < 0.001% | – | – | – | – | – | > 250 μg/test | < 0.001% | – | less than 0.001%
